Reference: article PMC8341977, “Towards novel herbicide modes of action by inhibiting lysine biosynthesis in plants” (eLife, 2021)
Where two headings read alike, the source gives them in different places.

Assays:
[1] = molecular target: T1, AtDHDPS2 (dihydrodipicolinate synthase 2) (Arabidopsis thaliana, UniProt Q9FVC8); test: DHDPS–DHDPR coupled enzyme assay (NADPH oxidation); assay type: biochemical
T1 construct: gene DHDPS2; recombinant, fusion tag cleaved
T1 sequence (Q9FVC8 40-365): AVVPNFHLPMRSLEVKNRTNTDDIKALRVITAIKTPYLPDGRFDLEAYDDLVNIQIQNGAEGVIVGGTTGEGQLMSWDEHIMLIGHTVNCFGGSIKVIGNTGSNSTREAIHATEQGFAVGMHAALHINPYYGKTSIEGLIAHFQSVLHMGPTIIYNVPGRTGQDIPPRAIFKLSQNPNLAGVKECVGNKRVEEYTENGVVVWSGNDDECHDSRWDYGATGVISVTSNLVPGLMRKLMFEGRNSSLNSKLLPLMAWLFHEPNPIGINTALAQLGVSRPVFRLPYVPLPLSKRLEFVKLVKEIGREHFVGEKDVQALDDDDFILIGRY

[2] = molecular target: T2, AtDHDPS1 (dihydrodipicolinate synthase 1) (Arabidopsis thaliana, UniProt Q9LZX6); test: DHDPS–DHDPR coupled enzyme assay (NADPH oxidation); assay type: biochemical
T2 construct: gene DHDPS1; recombinant, fusion tag cleaved
T2 sequence (Q9LZX6 40-365): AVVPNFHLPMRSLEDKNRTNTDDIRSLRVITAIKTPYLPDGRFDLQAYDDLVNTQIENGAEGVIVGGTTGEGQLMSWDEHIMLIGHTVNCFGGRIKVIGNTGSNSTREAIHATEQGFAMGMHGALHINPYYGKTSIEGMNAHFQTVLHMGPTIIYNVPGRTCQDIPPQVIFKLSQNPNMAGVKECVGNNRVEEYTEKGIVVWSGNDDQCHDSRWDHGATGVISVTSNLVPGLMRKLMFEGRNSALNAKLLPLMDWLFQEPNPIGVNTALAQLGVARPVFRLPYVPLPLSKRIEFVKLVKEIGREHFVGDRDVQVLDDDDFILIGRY

Compound	IC50 [1] [µM]	IC50 ([1]; read-out: IC50) [µM]	IC50 [2] [µM]
COc1ccc(C=C2SC(=O)N(CC(=O)O)C2=O)cc1 (stereo in doubt) [MBDTA-2, (Z)−2-(5-(4-methoxybenzylidene)−2,4-dioxothiazolidin-3-yl)acetic acid]	64 ± 1	–	–
COc1ccccc1/C=C1\SC(=O)N(CC(=O)O)C1=O [MBDTA-1, (Z)−2-(5-(2-methoxybenzylidene)−2,4-dioxothiazolidin-3-yl)acetic acid]	–	116 ± 5.2	126 ± 6.5
